Molecules are shown by their SMILES.

This assay deals with T1, hGPR40 (Homo sapiens, UniProt O14842).
T1 construct: 3x FLAG; expressed in transfected cells
T1 sequence (O14842 whole entry): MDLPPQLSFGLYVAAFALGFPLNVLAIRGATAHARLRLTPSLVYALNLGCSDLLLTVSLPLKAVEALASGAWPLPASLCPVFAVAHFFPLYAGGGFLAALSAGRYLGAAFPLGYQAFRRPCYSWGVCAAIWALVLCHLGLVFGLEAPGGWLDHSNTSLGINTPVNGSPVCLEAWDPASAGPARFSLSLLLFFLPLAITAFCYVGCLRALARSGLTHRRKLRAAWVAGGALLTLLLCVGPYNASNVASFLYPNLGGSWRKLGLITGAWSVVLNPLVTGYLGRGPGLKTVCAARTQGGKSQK
As to the kind of experiment: FDSS-Based Intracellular Calcium Assay. In kind it is cell-based. As to conditions: cells expressing GPR40, intracellular Ca2+ response. Here is the method:
FDSS-Based Intracellular Calcium Assay
Cell lines expressing GPR40 are generated using the pDEST 3× flag gene expression system and are cultured in culture medium comprising the following components: F12 (Gibco #11765), 10% lipid deprived fetal bovine serum, 250 μg/ml zeocin and 500 μg/ml G418. To conduct the fluorescent imaging plate reader (FLIPR)-based calcium flux assay to measure intracellular Ca^2+ response, cells expressing GPR40 are plated on 384 well plates (BD Biocoat #356697) at a density of 20,000 cells/20 μL medium per well in phenol red and serum-free DMEM (Gibco #21063-029) and incubated overnight. […] Compounds are dissolved in DMSO and diluted to desired concentrations with assay buffer and added to the cells as 3x solution (20 μL per well). Run fluorescence/luminescence reader FDSS (Hamamatsu) to read intracellular Ca^2+ response.
A general note: Calcium flux is commonly read through the fluorescence of an indicator in the cells.
Turning to `COc1ccc(F)c(-c2ccc(Cc3ccc(N4N=C(C(F)(F)F)C(C(C)C)C4CC(=O)O)cc3)c(C)c2)c1` (single isomer, unassigned) [Example 45, Isomer 1, 2-(1-(4-((2′-fluoro-5′-methoxy-3-methylbiphenyl-4-yl)methyl)phenyl)-4-isopropyl-3-(trifluoromethyl)-4,5-dihydro-1H-pyrazol-5-yl)acetic acid], the EC50 (usually the concentration giving half of the maximal effect) came to 3820 nM.

Turning to `COc1ccc(F)c(-c2ccc(Cc3ccc(N4N=C(C(F)(F)F)C(CC5CC5)C4CC(=O)O)cc3)c(C)c2)c1` (single isomer, unassigned) [Example 46, Isomer 2, 2-(4-(cyclopropylmethyl)-1-(4-((2′-fluoro-5′-methoxy-3-methylbiphenyl-4-yl)methyl)phenyl)-3-(trifluoromethyl)-4,5-dihydro-1H-pyrazol-5-yl)acetic acid], the EC50 came to 1910 nM.

As to `COc1ccc(F)c(-c2ccc(Cc3ccc(N4N=C(C(F)(F)F)C(CC5CC5)C4CC(=O)O)cc3)c(C)c2)c1` (single isomer, unassigned) [Example 46, Isomer 1, 2-(4-(cyclopropylmethyl)-1-(4-((2′-fluoro-5′-methoxy-3-methylbiphenyl-4-yl)methyl)phenyl)-3-(trifluoromethyl)-4,5-dihydro-1H-pyrazol-5-yl)acetic acid], the EC50 was found to be 50 nM.

Take `COc1ccc(F)c(-c2ccc(Cc3ccc(N4N=C(C(F)(F)F)CC4CC(=O)O)cc3)c(C)c2)c1` (single isomer, unassigned) [Example 17, Isomer 1, 2-(1-(4-((2′-fluoro-5′-methoxy-3-methylbiphenyl-4-yl)methyl)phenyl)-3-(trifluoromethyl)-4,5-dihydro-1H-pyrazol-5-yl)acetic acid]: the EC50 came out at 150 nM.

Take `COc1ccc(F)c(-c2ccc(Oc3ccc(N4N=C(C(F)(F)F)CC4CC(=O)O)cc3)c(C)c2)c1` (single isomer, unassigned) [Example 14, Isomer 1, 2-(1-(4-(2′-fluoro-5′-methoxy-3-methylbiphenyl-4-yloxy)phenyl)-3-(trifluoromethyl)-4,5-dihydro-1H-pyrazol-5-yl)acetic acid]: the concentration for a half-maximal effect (EC50) was 165 nM.

Take `COc1ccc(F)c(-c2ccc(Cc3ccc(N4N=C(C(F)(F)F)CC4CC(=O)O)cc3)c(F)c2)c1` (single isomer, unassigned) [Example 19, Isomer 1, 2-(1-(4-((2′,3-difluoro-5′-methoxybiphenyl-4-yl)methyl)phenyl)-3-(trifluoromethyl)-4,5-dihydro-1H-pyrazol-5-yl)acetic acid]: the 50% effective concentration (EC50) came to 580 nM.

Turning to `Cc1cc(Cc2ccc(N3N=C(C(F)(F)F)CC3CC(=O)O)cc2)ccc1-c1cc(C(F)(F)F)ccc1F` (racemic) [Example 24, 2-(1-(4-((2′-fluoro-2-methyl-5′-(trifluoromethyl)biphenyl-4-yl)methyl)phenyl)-3-(trifluoromethyl)-4,5-dihydro-1H-pyrazol-5-yl)acetic acid], the EC50 was found to be 570 nM.

Regarding `O=C(O)CC1CC(C(F)(F)F)=NN1c1ccc(OCc2ccccc2)cc1` (racemic) [Example 1, 2-(1-(4-(benzyloxy)phenyl)-3-(trifluoromethyl)-4,5-dihydro-1H-pyrazol-5-yl)acetic acid], the EC50 turned out to be 1960 nM.

On to `COCC1C(C(F)(F)F)=NN(c2ccc(Cc3ccc(-c4cc(OC)ccc4F)cc3C)cc2)C1CC(=O)O` (single isomer, unassigned) [Example 48, Isomer 1, 2-(1-(4-((2′-fluoro-5′-methoxy-3-methylbiphenyl-4-yl)methyl)phenyl)-4-(methoxymethyl)-3-(trifluoromethyl)-4,5-dihydro-1H-pyrazol-5-yl)acetic acid], for which the EC50 came out at 170 nM.

Take `COc1cc(-c2ccc(Oc3ccc(N4N=C(C(F)(F)F)CC4CC(=O)O)cc3)c(C)c2)c(F)cn1` (single isomer, unassigned) [Example 15, Isomer 1, 2-(1-(4-(4-(5-fluoro-2-methoxypyridin-4-yl)-2-methylphenoxy)phenyl)-3-(trifluoromethyl)-4,5-dihydro-1H-pyrazol-5-yl)acetic acid]: the concentration giving a half-maximal response (EC50) is 270 nM.

In the case of `Cc1ccccc1Oc1ccc(N2N=C(S(C)(=O)=O)CC2CC(=O)O)cc1` (racemic) [Example 5, 2-(3-(methylsulfonyl)-1-(4-(o-tolyloxy)phenyl)-4,5-dihydro-1H-pyrazol-5-yl)acetic acid], the EC50 stood at 1650 nM.

In the case of `COc1ccc(F)c(-c2ccc(Cc3ccc(N4N=C(C(F)(F)F)C(C)C4CC(=O)O)cc3)c(Cl)c2)c1` (single isomer, unassigned) [Example 60, Isomer 1, 22-(1-(4-((3-chloro-2′-fluoro-5′-methoxy-[1,1′-biphenyl]-4-yl)methyl)phenyl)-4-methyl-3-(trifluoromethyl)-4,5-dihydro-1H-pyrazol-5-yl)acetic acid], the EC50 stood at 970 nM.

In the case of `COc1cc(-c2ccc(Cc3ccc(N4N=C(C(F)(F)F)[C@@H](C)[C@@H]4CC(=O)O)cc3)c(C)c2)c(F)cn1` [Example 74, 2-((4S,5 S)-1-(4-(4-(5-fluoro-2-methoxypyridin-4-yl)-2-methylbenzyl)phenyl)-4-methyl-3-(trifluoromethyl)-4,5-dihydro-1H-pyrazol-5-yl)acetic acid], the EC50 is 210 nM.

For the molecule `COc1ccc(F)c(-c2cc(C)c(Cc3ccc(N4N=C(C(F)(F)F)CC4CC(=O)O)cc3)c(F)c2)c1` (single isomer, unassigned) [Example 21, Isomer 2, 2-(1-(4-((2′,3-difluoro-5′-methoxy-5-methylbiphenyl-4-yl)methyl)phenyl)-3-(trifluoromethyl)-4,5-dihydro-1H-pyrazol-5-yl)acetic acid], the EC50 was 270 nM.

Consider `COc1ccc(F)c(-c2cc(C)c(Cc3ccc(N4N=C(C(F)(F)F)CC4CC(=O)O)cc3)c(F)c2)c1` (single isomer, unassigned) [Example 21, Isomer 1, 2-(1-(4-((2′,3-difluoro-5′-methoxy-5-methylbiphenyl-4-yl)methyl)phenyl)-3-(trifluoromethyl)-4,5-dihydro-1H-pyrazol-5-yl)acetic acid], for which the EC50 was 500 nM.

On to `COc1cc(-c2ccc(Cc3ccc(N4N=C(C(F)(F)F)CC4CC(=O)O)cc3)c(C)c2)c(F)cn1` (single isomer, unassigned) [Example 27, Isomer 2, 2-(1-(4-(4-(5-fluoro-2-methoxypyridin-4-yl)-2-methylbenzyl)phenyl)-3-(trifluoromethyl)-4,5-dihydro-1H-pyrazol-5-yl)acetic acid], for which the EC50 turned out to be 150 nM.

Turning to `COc1ccc(F)c(-c2ccc(Cc3ccc(N4N=C(c5ncccn5)C(C)C4CC(=O)O)cc3)c(C)c2)c1` (single isomer, unassigned) [Example 61, isomer 2], the EC50 came to 460 nM.

As to `COc1ccc(F)c(-c2ccc(Oc3ccc(N4N=C(C#N)CC4CC(=O)O)cc3)c(C)c2)c1` (racemic) [Example 32, 2-(3-cyano-1-(4-(2′-fluoro-5′-methoxy-3-methylbiphenyl-4-yloxy)phenyl)-4,5-dihydro-1H-pyrazol-5-yl)acetic acid], the EC50 was found to be 190 nM.

Regarding `COc1cccc(-c2cc(C)c(Oc3ccc(N4N=C(C#N)CC4CC(=O)O)cc3)cc2C)c1` (racemic) [Example 36, 2-(3-cyano-1-(4-(3′-methoxy-2,5-dimethylbiphenyl-4-yloxy)phenyl)-4,5-dihydro-1H-pyrazol-5-yl)acetic acid], the 50% effective concentration (EC50) is 590 nM.

(Values after patent US9656963B2 (BRISTOL-MYERS SQUIBB COMPANY, priority 2012, dated 2017).)
